# Experimental data: patent US4157399A, “Benzo(B)thiophenes” (Parcor, priority 1976, dated 1979)
# How the values were obtained:
# Assay type in all cases: in vivo
# [1] = Rabbit fed cholesterol-enriched (1%) feedstuff, dosage of elements causing dyslipemia; parameters: total cholesterol (T) / esterified cholesterol (E) / Kunkelphenol test (K2) / Burstein dextrane test (B) / serum lipids (LS): unit not given here; conditions: 100 mg/Kg orally
# Procedure: (§1) The animals divided into several batches of 15 animals are fed with feedstuff enriched in cholesterol (1%). Batch A serves as control and is not treated, the other batches also receive the derivatives to be tested at a dose of 100 mg/Kg, administered orally, suspended in aqueous solution of gum arabic at 5%. On the first day of experimentation and then every 15 days for 75 days biological examinations are conducted on all the animals, during which the various elements causing dyslipemia are dosed; total cholesterol (T), esterified cholesterol (E), free cholesterol (L), esterification ratio (E/T), Kunkel-Phenol test (K1), Kunkelphenol test (K2), Burstein dextrane test (B) and serum lipids (LS).
# [2] = test system: fatty infiltrations of the liver; assay: Rabbit autopsy, mark for fatty infiltrations of the liver; conditions: mark of 0 to 3; end of test (75 days); 100 mg/Kg orally
# Procedure: as §1
# (§2) At the end of the test all the animals are killed and an autopsy is carried out; a macroscopic examination is then conducted on the livers and aortas and a mark of 0 to 3 is given to the amount of fatty infiltrations of the liver and 0 to 4 to the intensity of aortic atheromatous lesions.
# [3] = test system: aortic atheromatous lesions; assay: Rabbit autopsy, mark for aortic atheromatous lesions; conditions: mark of 0 to 4; end of test (75 days); 100 mg/Kg orally
# Procedure: as §1, §2
# [4] = Propylthiouracil test, free and total cholesterol in the rat; conditions: 11th day; propylthiouracil-treated rats; oral 100 mg/Kg
# Procedure: Experiments were carried out according to the propylthiouracil test (RANNEY & Coll., J. PHARMACOL. EXPER. THERAP. 1963, 142, 132-136). The propyl-thiouracil administered to adult rats has the property of making them hypercholesterolemic: the plasma level of cholesterol increases by approximately 15% under these conditions. Experiments are conducted on various batches of rats, the control batch receiving only propylthiouracil and the other treated batches also receiving the composition of the invention at an oral dose of 100 mg/Kg.
# On the 11th day of experimentation blood samples are taken and the free cholesterol and total cholesterol is dosed.
SMILES,Burstein dextrane test (B) ([1]; 1st day),Kunkel-Phenol test (K1) ([1]; 1st day),Kunkelphenol test (K2) ([1]; 1st day),esterification ratio (E/T) ([1]; 1st day),esterified cholesterol (E) ([1]; 1st day),free cholesterol (L) ([1]; 1st day),serum lipids (LS) ([1]; 1st day),total cholesterol (T) ([1]; 1st day),Burstein dextrane test (B) ([1]; 30th day),Kunkel-Phenol test (K1) ([1]; 30th day),Kunkelphenol test (K2) ([1]; 30th day),esterification ratio (E/T) ([1]; 30th day),esterified cholesterol (E) ([1]; 30th day),free cholesterol (L) ([1]; 30th day),serum lipids (LS) ([1]; 30th day),total cholesterol (T) ([1]; 30th day),Burstein dextrane test (B) ([1]; 75th day),Kunkel-Phenol test (K1) ([1]; 75th day),Kunkelphenol test (K2) ([1]; 75th day),esterification ratio (E/T) ([1]; 75th day),also measured
"CN(C)c1c(-c2ccccc2)sc2ccccc12 [derivative 29, 3-dimethylamino-2-phenyl-benzo(b)thiophene]","10,7","7,8","12,7","0,46","0,27","0,28","1,95","0,58","21,00","18,4","24,9","0,60","0,89","0,59","2,83","1,48","35,1","32,6","41,5","0,60","esterified cholesterol (E) ([1]; 75th day): 1,75; free cholesterol (L) ([1]; 75th day): 1,15; serum lipids (LS) ([1]; 75th day): 3,95; total cholesterol (T) ([1]; 75th day): 2,90; fatty infiltrations of the liver [2]: 0,8; aortic atheromatons lesions [3]: 1,1; Free cholesterol [4]: 0,12 g/l; Total cholesterol [4]: 0,50 g/l"
"CCCCN(C)c1c(-c2ccc(OC)cc2)sc2ccccc12 [derivative 42, 3-(N-butyl,N-methylamino)-2-(4-methoxyphenyl)-benzo(b)thiophene]","11,2","8,1","13,7","0,50","0,26","0,25","2,05","0,51","21,2","18,9","25,5","0,62","0,90","0,55","2,91","1,45","35,4","33,2","45,0","0,61","esterified cholesterol (E) ([1]; 75th day): 1,85; free cholesterol (L) ([1]; 75th day): 1,09; serum lipids (LS) ([1]; 75th day): 4,05; total cholesterol (T) ([1]; 75th day): 2,94; fatty infiltrations of the liver [2]: 0,9; aortic atheromatons lesions [3]: 1,5; Free cholesterol [4]: 0,12 g/l; Total cholesterol [4]: 0,54 g/l"
"c1ccc(CN2CCN(c3c(-c4ccccc4)sc4ccccc34)CC2)cc1 [derivative 24, 3-(4-benzylpiperazino)-2-phenyl-benzo(b) thiophene]","10,8","8,2","13,0","0,50","0,28","0,27","2,00","0,55","2,1","18,8","25,3","0,65","0,98","0,52","2,87","1,50","35,2","32,9","48,2","0,61","esterified cholesterol (E) ([1]; 75th day): 1,80; free cholesterol (L) ([1]; 75th day): 1,11; serum lipids (LS) ([1]; 75th day): 3,98; total cholesterol (T) ([1]; 75th day): 2,91; fatty infiltrations of the liver [2]: 1,00; aortic atheromatons lesions [3]: 1,4; Free cholesterol [4]: 0,14 g/l; Total cholesterol [4]: 0,56 g/l"
